Like-named read-outs stand apart in the source and are kept apart here.
Experiments:
Details in all cases: mouse, in vivo
preS antigen [1] = tested on: preS antigen; set-up: species or system C57BL/6 female mice
HBsAg (S-protein) [2] = tested on: HBsAg (S-protein); set-up: species or system C57BL/6 female mice
HA antigen = tested on: HA antigen; set-up: species or system C57BL/6 female mice
HBsAg (S-protein) [3] = tested on: HBsAg (S-protein); set-up: species or system C57BL/6 female mice; remark: listed apart in the source
preS antigen [4] = tested on: preS antigen; set-up: species or system C57BL/6 female mice; remark: listed apart in the source
HBsAg = tested on: HBsAg

Row | Compound | preS antibody titer (preS antigen [1]) | IgG2a/IgG1 (%) (HBsAg (S-protein) [2]) | IgG2b/IgG1 (%) (HBsAg (S-protein) [2]) | HA antibody titer (HA antigen) | HBsAg antibody titer (HBsAg (S-protein) [3]) | preS antibody titer (preS antigen [4]) | IgG2a/IgG1 (%) (HBsAg) | IgG2b/IgG1 (%) (HBsAg)
1 | polyinosinic:polycytidylic acid [Poly I:C] | 6.5 × 10^5 | 9.1% | 66.4% | 8.6 × 10^5 | 6.3 × 10^5 | 2.3 × 10^5 | 8.04% | 89.05%
2 | FSL-1 | – | – | – | – | 4.4 × 10^5 | 1.4 × 10^5 | 9.3% | 122.5%
3 | CCCCCCCCCCCCCCCC(=O)N[C@@H](CSC[C@@H](COC(=O)CCCCCCCCCCCCCCC)OC(=O)CCCCCCCCCCCCCCC)C(=O)N[C@@H](CO)C(=O)N[C@@H](CCCCN)C(=O)N[C@@H](CCCCN)C(=O)N[C@@H](CCCCN)C(=O)N[C@@H](CCCCN)C(=O)O (racemic) [Pam3Cys-SKKKK, N-palmitoyl-S-[2,3-bis(palmitoyloxy)-(2RS)-propyl]-[R]-cystein-SKKKK] | 6.2 × 10^5 | 8.9% | 153.9% | 6.8 × 10^5 | 6.5 × 10^5 | 1.3 × 10^5 | 17.4% | 159.4%

Reference: patent US8216595B2 (priority 2007, dated 2012)
